Measurements as given in article PMC7731379, “Withanolide-Type Steroids from Withania aristata as Potential Anti-Leukemic Agents” (Molecules, 2020).
Read-outs that look alike come from different tables or passages of the source.

How the values were obtained:
[1] = MTT cell viability assay, non-tumoral Vero cells; conditions: African green monkey, Vero cells (African green monkey kidney, non-tumoral)
Procedure: (§1) HL-60 (human promyelocytic leukemia cell line) and Vero (African green monkey kidney) cell lines from American Type Culture Collection (ATCC-LGC) were each grown in Dulbecco’s modified Eagle’s medium (DMEM) with 4.5 g/L glucose (Sigma-Aldrich), supplemented with 10% fetal bovine serum (Gibco), 1% of a penicillin–streptomycin mixture (10.000 and 10 mg/mL, respectively), and 200 mM L-glutamine. Cells were maintained at 37 °C in 5% CO2 and 98% humidity.
(§2) Viable cells were assessed using the colorimetric MTT [3-(4,5-dimethylthiazol-2-yl)-2,5-diphenyl tetrazolium bromide reduction assay [49]. A cell suspension (1 × 10^4 /200 μL/well) in log-phase of growth seeded in DMEM, supplemented with 5% fetal bovine serum in microtiter well plates (96 wells, Iwaki, London, UK) were added to compounds predissolved in dimethylsulphoxide (DMSO) at different concentrations. After 48 h of incubation, 20 μL/well of the MTT solution (5 mg/mL in phosphate buffered saline, PBS) were added and plates incubated for 4 h at 37 °C. Subsequently, the medium/MTT solutions were removed carefully by aspiration and replaced with 150 μL/well of DMSO to dissolve the formazan crystals. Absorbance was measured in a microplate reader (Infinite M200, Tecan) at a wavelength of 550 nm. Solvent control cultures were considered 100% and percentage of viable treated cells were plotted against compound concentrations. The 50% cell viability value (IC50) was calculated from the curve. Each experiment was performed at least three times in triplicates. Data are given in arithmetic means ± SD. Selectivity ratio was defined as IC50 value for the tumoral cell line divided by IC50 value for the Vero cell line.

[2] = test system: HL-60 (human promyelocytic leukemia cell line); test: MTT cell viability (antiproliferative) assay, HL-60; conditions: for IC50: mean ± SD of three independent experiments; for SI (selectivity index): Vero (IC50) on HL-60 (IC50)
Procedure: as §1, §2

[3] = in vitro; conditions: African green monkey
Procedure: as §1, §2

[4] = test system: HL-60 (human promyelocytic leukemia cell line); conditions: 48 h
Procedure: as §1, §2

[5] = test system: Vero (African green monkey kidney) cell line; test: MTT cell viability assay, non-tumoral Vero cells; conditions: read-out: Cytotoxic activity IC50, Vero; MTT, 48 h incubation; mean ± SD of three independent experiments
Procedure: as §1, §2

[6] = Cytotoxic activity IC50, Vero, MTT, 48 h incubation, mean ± SD of three independent experiments
[7] = Homo sapiens, HL-60, 48 h, read-out: Cytotoxic activity IC50, HL 60, MTT, 48 h incubation
[8] = read-out: Cytotoxic activity IC50, HL 60, MTT, 48 h incubation

Molecule | IC50 [2, 7] | SI (selectivity index) [2] | IC50 at 48 h ([3]; Cytotoxic activity IC50, Vero) | further results
COc1cc([C@@H]2c3cc4c(cc3[C@@H](O[C@@H]3O[C@@H]5CO[C@@H](C)O[C@H]5[C@H](O)[C@H]3O)[C@H]3COC(=O)[C@H]23)OCO4)cc(OC)c1O [Etoposide, reference compound] | 2.4 ± 0.1 µM | 8.2 |  | IC50 at 48 h [1, 6]: 19.5 ± 0.16 µM
CC1=C(CO)C(=O)OC(C(C)=C2C(O)CC3C4CC5OC56C(O)C=CC(=O)C6(C)C4CCC23C)C1 (stereo not drawn) [Compound 18, 5β,6β-epoxy-4β,16β,27-trihydroxy-1-oxo-witha-2,17(20),24-trienolide] | 8.2 ± 0.43 µM | 4.2 | 34.7 ± 0.75 µM | 
CC1=C(CO)C(=O)OC(C(C)C2=CCC3C4CC(O)C56C=CC(OO5)C(=O)C6(C)C4CCC23C)C1 (stereo not drawn) [Compound 4, 6β,27-Dihydroxy-2α,5α-dioxan-1-oxo-witha-3,16,24-trien-26,22-olide] | 6.2 ± 0.1 µM | 5.1 |  | IC50 at 48 h [1, 6]: 31.6 ± 0.08 µM
CC(=O)OCC1=C(C)CC(C(C)C2CCC3C4CC5OC56C(O)C=CC(=O)C6(C)C4CCC23C)OC1=O (stereo not shown) [Compound 16, 27-acetyl-withaferin A] | ≤ 0.5 µM |  | 5.7 ± 0.13 µM | IC50 [4]: 0.4 ± 0.06 µM
CC1=C(CO)C(=O)OC(C(C)C2=CCC3C4CC=C5C(O)C=CC(=O)C5(C)C4CCC23C)C1 (stereo not drawn) [Compound 5, 4β,27-dihydroxy-1-oxo-witha-2,5,16,24-tetraenolide] | 8.2 ± 0.09 µM | 0.8 | 6.4 ± 0.12 µM | 
CC1=C(CO)C(=O)OC(C(C)C2CCC3C4CC(O)C5(C=O)CCC(=O)C5(C)C4CCC23C)C1 (stereo not drawn) [Compound 29, 4β-formyl-6β,27-dihydroxy-1-oxo-witha-24-enolide] | 19.2 ± 0.84 µM | >2.1 |  | IC50 at 48 h [1, 6]: > 40 µM
CC1=C(CO)C(=O)OC(C(C)C2=CCC3C4CC=C5C(=O)C=CC(=O)C5(C)C4CCC23C)C1 (stereo not shown) [Compound 8, 27-hydroxy-1,4-dioxo-witha-2,5,16,24-tetraenolide] | 4.2 ± 0.25 µM | 3.7 | 15.5 ± 0.35 µM | 
4β,16β,27-trihydroxy-1-oxo-witha-2,5,17(20),24-tetraenolide [Compound 9] |  | 1.7 |  | IC50 [5]: 25.7 ± 0.65 µM; IC50 [2, 8]: 14.8 ± 0.68 µM
CC1=C(CO)C(=O)OC(C(C)C2CCC3C4CC=C5C(O)C=CC(=O)C5(C)C4CCC23C)C1 (stereo not drawn) [Compound 7, 4β,27-dihydroxy-1-oxo-witha-2,5,24-trien olide] | 15.7 ± 0.04 µM | >2.6 | > 40 µM | 
CC1=C(CO)C(=O)OC(C(C)C2CCC3C4CC(O)C5(O)C(O)C=CC(=O)C5(C)C4CCC23C)C1 (stereo not shown) [Compound 26, 2,3-dehydrosomnifericin] | 13.4 ± 0.85 µM | >3.0 | > 40 µM | 
CC1=C(C)C(=O)OC(C(C)C2CC=C3C4CC5OC56C(O)C=CC(=O)C6(C)C4CCC32C)C1 (stereo not drawn) [Compound 21, 5β,6β-epoxy-4β-hydroxy-1-oxo-22R-witha-2,14,24-trienolide] | 0.9 ± 0.05 µM | 6.9 | 6.2 ± 0.11 µM | 
CC1=C(CO)C(=O)OC(C(C)C2CCC3C4CC(Cl)C5(O)C(O)C=CC(=O)C5(C)C4CCC23C)C1 (stereo not drawn) [Compound 27, 6α-chloro-5β-hydroxywithaferin A] | 1.1 ± 0.2 µM | 7.1 | 7.8 ± 0.36 µM | fold more potent than its corresponding hydroxyl derivative 26 ([2]; HL-60 cytotoxic effect, versus 26): 12 fold
CC1=C(C)C(=O)OC(C(C)C2=CCC3C4CC=C5C(O)C=CC(=O)C5(C)C4CCC23C)C1 (stereo not drawn) [Compound 6, 4β-hydroxy-1-oxo-witha-2,5,16,24-tetraenolide] | 7 ± 0.55 µM | 1.6 | 11.5 ± 0.09 µM | 
CC1=C(C)C(=O)OC(C(C)C2CCC3C4CC5OC56C(O)C=CC(=O)C6(C)C4CCC23C)C1 (stereo not drawn) [Compound 15, 5β,6β-epoxy-4β-hydroxy-1-oxo-witha-2,24-dienolide] | ≤ 0.5 µM |  | 4.6 ± 0.09 µM | IC50 [4]: 0.5 ± 0.07 µM
CC1=C(CO)C(=O)OC(C(C)C2CCC3C4CC(O)C5(C=O)C=CC(=O)C5(C)C4CCC23C)C1 (stereo not drawn) [Compound 28, 4β-formyl-6β,27-dihydroxy-1-oxo-witha-2,24-dienolide] | 30.5 ± 0.45 µM | >1.3 |  | IC50 at 48 h [1]: > 40 µM
CC1=C(CO)C(=O)O[C@@H]([C@@H](C)[C@H]2CC[C@H]3[C@@H]4C[C@H]5O[C@]56[C@@H](O)[C@@H](O)CC(=O)[C@]6(C)[C@H]4CC[C@]23C)C1 [Compound 24, viscosalactone B] | > 40 µM |  |  | IC50 at 48 h [1, 6]: > 40 µM
CC1=C(CO)C(=O)OC(C(C)C2(O)CCC3C4CC=C5C(O)C=CC(=O)C5(C)C4CCC32C)C1 (stereo not drawn) [Compound 12, 4α,17α,27-trihydroxy-1-oxo-witha-2,5,24-trienolide] | 6.6 ± 0.14 µM | >6.1 | > 40 µM | fold more potent than the β-disposition (13) ([2]; HL-60, versus 13): 2 fold
CC1=C(CO)C(=O)O[C@@H]([C@@H](C)C2=CC[C@H]3[C@@H]4C[C@H]5O[C@]56[C@@H](O)C=CC(=O)[C@]6(C)[C@H]4CC[C@]23C)C1 [Compound 19, witharistatin] | ≤ 0.5 µM | 3.8 |  | IC50 at 48 h [3]: 1.9 ± 0.08 µM; IC50 [4]: 0.5 ± 0.05 µM
CC(=O)OCC1=C(C)CC(C(C)C2CCC3C4CC5OC56C(O)C(O)CC(=O)C6(C)C4CCC23C)OC1=O (stereo not shown) [Compound 25, 27-O-acetyl-viscosalactone B] | 1.5 ± 0.54 µM | 7.9 | 11.8 ± 0.1 µM | fold more potent than its corresponding hydroxyl derivative 24 ([2]; HL-60 cytotoxic effect, versus 24): 26 fold
CC1=C(CO)C(=O)OC(C(C)C2(O)CCC3C4CC5OC56C(O)C=CC(=O)C6(C)C4CCC32C)C1 (stereo not drawn) [Compound 23, 5β,6β-epoxy-4β,17α,27-trihydroxy-1-oxo-witha-2,24-dienolide] | 6.5 ± 0.55 µM | >6.2 | > 40 µM | 
CC1=C(CO)C(=O)OC(C(C)C2(O)CCC3C4CC(O)C56C=CC(OO5)C(=O)C6(C)C4CCC32C)C1 (stereo not drawn) [Compound 1, 6β,17α,27-Trihydroxy-2α,5α-dioxan-1-oxo-witha-3,24-dien-26,22-olide] |  | >3.1 |  | IC50 at 48 h [1]: > 40 µM; IC50 [2, 8]: 12.8 ± 0.24 µM
CC1=C(CO)C(=O)OC(C(C)C2CCC3C4CC(O)C56C=CC(OO5)C(=O)C6(C)C4CCC23C)C1 (stereo not drawn) [Compound 3, 6β,27-Dihydroxy-2α,5α-dioxan-1-oxo-witha-3,24-dien-26,22-olide] | 3.3 ± 0.45 µM | 4.9 |  | IC50 at 48 h [1, 6]: 16 ± 0.73 µM
CC1=C(CO)C(=O)OC(C(C)C2CCC3C4CC5OC56C(=O)C=CC(=O)C6(C)C4CCC23C)C1 (stereo not shown) [Compound 22, 4-dehydro-withaferin A] | 0.7 ± 0.09 µM | 24.1 | 16.9 ± 0.7 µM | 
16β,27-dihydroxy-1,4-dioxo-witha-2,5,17(20),24-tetraenolide [Compound 11] |  | >1.4 |  | IC50 [5]: > 40 µM; IC50 [2, 8]: 27.8 ± 0.45 µM
CC1=C(CO)C(=O)OC(C(C)C2(O)CCC3C4CC(O)C56C=CC(OO5)C(=O)C6(C)C4CCC32C)C1 (stereo not drawn) [Compound 2, 6β,17α,27-Trihydroxy-2β,5β-dioxan-1-oxo-witha-3,24-dien-26,22-olide] |  | >1.5 |  | IC50 [5]: > 40 µM; IC50 [2, 8]: 26.7 ± 0.6 µM
CC1=C(CO)C(=O)O[C@@H]([C@@H](C)[C@H]2CC[C@H]3[C@@H]4C[C@H]5O[C@]56[C@@H](O)C=CC(=O)[C@]6(C)[C@H]4CC[C@]23C)C1 [Compound 14, withaferin A] |  | 33.0 |  | IC50 at 48 h [1, 6]: 6.4 ± 0.21 µM; IC50 [2, 8]: 0.2 ± 0.02 µM; IC50 ([2]; read-out: Cytotoxic activity IC50, HL 60, MTT, 48 h incubation, listed as WA): ≤ 0.5 µM
4β,16β-dihydroxy-1-oxo-witha-2,5,17(20),24-tetraenolide [Compound 10] |  | >2.4 |  | IC50 [5]: > 40 µM; IC50 [2, 8]: 16.8 ± 0.75 µM
CC1=C(C)C(=O)OC(C(C)C2=CCC3C4CC5OC56C(O)C=CC(=O)C6(C)C4CCC23C)C1 (stereo not shown) [Compound 20, 27-deoxy-16-en-withaferin A] | 4.6 ± 0.35 µM | 2.2 | 10 ± 0.61 µM | 
